Results: patent US20260150837A1, “GLUCAN DERIVATIVES FOR MICROBIAL CONTROL” (Nutrition & Biosciences USA 4, Inc., priority 2021, published 2026)

System: Escherichia coli ATCC 25922
Test: ASTM E3160-18 antibacterial efficacy of treated fabric, with ASTM E3162-18 wash durability
Format: cell-based
Settings: cotton, use level 250-2000 ppm by row; for AM Activity after 25 Real Time Washes: after 25 real time washes (ASTM-E3162-18); for Initial AM Activity: before washing
Protocol: (Procedure 1A) Exhaust Method: Alpha-1,6-glucan ether compounds (e.g., as prepared in Materials/Methods) were exhaust-applied using Werner Mathis AG BFA-12 exhaust equipment. Individual formulation baths comprising desired concentrations of a glucan ether polymer in water were prepared. Each fabric sample (20 g) was loosely folded horizontally and placed into a test canister, followed by addition of 200 ml of a bath solution. The canisters were then closed and secured to the rotating wheel of the equipment. The rotation speed of the wheel was set to 35 rpm, switching from clockwise to counterclockwise modes at 1-minute intervals. In each case, the instrument, with the samples already loaded, would first heat up at a selected rate of heating until the target temperature was reached, maintaining the temperature for preset durations, before cooling down to initial temperature. Once the exhaustion process was complete, all the fabric samples were removed from the exhaust canisters and passed through padding equipment (Fanyuan Instruments, DW2010A) set to a pressure of 8.4 kg to squeeze out the excess water. Lastly, each sample was dried in a MATHIS lab dryer LTE for 5 minutes at 120° C.
(Procedure 1B) Padding Method: Alpha-1,6-glucan ether compounds (e.g., as prepared in Materials/Methods) were also applied to fabric samples via a padding process using a MATHIS HF or Fanyuan Instruments (DW2010A) padder. Dry fabric was submerged into a bath containing an aqueous solution of glucan ether compound at a desired concentration in water and passed through padder rollers to squeeze out (applied pressure equaled 3.1 bar) excess treatment solution. Each fabric sample was dried and cured in a MATHIS lab dryer LTE for 5 minutes at 120° C. Each glucan solution was prepared to account for water weight pick-up by each fabric type and their exhaust potential.
(Procedure 2A) ASTM E3160-18: In some cases, an alpha-1,6-glucan ether compound herein was considered to be antimicrobially efficient if it imparted a >3 log10 reduction of bacterial growth as tested by the American Society for Testing and Materials (ASTM) method E3160-18 (Quantitative Evaluation of the Antibacterial Properties of Porous Antibacterial Treated Articles, incorporated herein by reference) at a use level ≤5000 ppm. The ASTM E3160 method was performed as follows: The day before the test, a culture of Escherichia coli of the American Type Culture Collection (ATCC) 25922 was inoculated by transferring a single colony from tryptic soy agar (TSA), using a sterile loop, into a tryptic soy broth (TSB). On the day of the experiment (next day), each fabric sample (treated with an alpha-1,6-glucan ether herein or a control compound, e.g., prepared by Procedure 1A above) was cut into three 0.40-g swatches (about 1×1 inch). Each fabric swatch was placed into a 50-mL sterile specimen cup. On the same day, bacterial/working inoculum was prepared by diluting the overnight culture of E. coli into phosphate buffer supplemented with TSB (1:500) and 0.05% TRITON X-100 to obtain a bacterial concentration that was between 2.5×10^5 colony forming units (CFU)/mL and 1.0×10^6 CFU/mL, with a target concentration of 6×10^5 CFU/mL. All samples were inoculated by applying 0.2 mL of working inoculum in several aliquots directly onto the fabric surface, and were allowed to incubate for 24 hours at 37° C. Samples were neutralized with 10 mL Dey-Engley (D-E) neutralizing buffer and enumerated in triplicate in 96-well plates containing 180 μL TSB by transferring 20 μL of neutralized sample to the top well of the 96-well plates and serially diluting 20 μL down the plate.

Structure (SMILES)	AM Activity after 25 Real Time Washes [log10 log10 reduction]	Initial AM Activity [log10 log10 reduction]
CCCCCCCCCCCC[N+](C)(C)C.[Cl-] [Comparative 7, dodecyltrimethylammonium chloride]	<1	5
CCCCCCCCCCCC(=O)N[C@@H](CCCNC(=N)N)C(=O)OCC [Comparative 5, Lauroyl arginine ethyl ester]	<1	5
CCCCCCCCCCCC[N+](C)(C)CC(O)CCl.[Cl-] (centres unmarked) [Comparative 6, 3-chloro-2-hydroxypropyl dodecyldimethylammonium chloride]	<2	5
CCCCCCCCCCCCCCCCCC[N+](C)(C)CCC[Si](O)(O)O.[Cl-] [Comparative 3, 3-(trihydroxysilyl)propyldimethyl-octadecyl ammonium chloride]	<1	5
